PubChem BioAssay (NCI)
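The compound was tested at five concentrations on cells cultured in 96-well plates, with a 48-hour exposure period. TGI marks complete inhibition of growth.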

Columns and labels:
Assay in all cases: NCI-60 cell line screen, 48 h
786-0 renal = system: 786-0 renal
A498 renal = system: A498 renal
A549 NSCLC = system: A549 NSCLC
ACHN renal = system: ACHN renal
CAKI-1 renal = system: CAKI-1 renal
CCRF-CEM leukemia = system: CCRF-CEM leukemia
COLO 205 colon = system: COLO 205 colon
DU-145 prostate = system: DU-145 prostate
EKVX NSCLC = system: EKVX NSCLC
HCC-2998 colon = system: HCC-2998 colon
HCT-116 colon = system: HCT-116 colon
HCT-15 colon = system: HCT-15 colon
HL-60(TB) leukemia = system: HL-60(TB) leukemia
HOP-62 NSCLC = system: HOP-62 NSCLC
HOP-92 NSCLC = system: HOP-92 NSCLC
HS 578T breast = system: HS 578T breast
HT29 colon = system: HT29 colon
IGROV1 ovarian = system: IGROV1 ovarian
K-562 leukemia = system: K-562 leukemia
KM12 colon = system: KM12 colon
LOX IMVI melanoma = system: LOX IMVI melanoma
M14 melanoma = system: M14 melanoma
MALME-3M melanoma = system: MALME-3M melanoma
MCF7 breast = system: MCF7 breast
MDA-MB-231 breast = system: MDA-MB-231 breast
MDA-MB-435 = system: MDA-MB-435
MDA-N = system: MDA-N
MOLT-4 leukemia = system: MOLT-4 leukemia
NCI-H226 lung = system: NCI-H226 lung
NCI-H23 lung = system: NCI-H23 lung
NCI-H460 lung = system: NCI-H460 lung
NCI-H522 lung = system: NCI-H522 lung
NCI/ADR-RES ovarian = system: NCI/ADR-RES ovarian
OVCAR-3 ovarian = system: OVCAR-3 ovarian
OVCAR-5 ovarian = system: OVCAR-5 ovarian
OVCAR-8 ovarian = system: OVCAR-8 ovarian
PC-3 prostate = system: PC-3 prostate
RXF 393 renal = system: RXF 393 renal
SF-268 CNS = system: SF-268 CNS
SF-295 CNS = system: SF-295 CNS
SF-539 CNS = system: SF-539 CNS
SK-MEL-2 melanoma = system: SK-MEL-2 melanoma
SK-MEL-28 melanoma = system: SK-MEL-28 melanoma
SK-MEL-5 melanoma = system: SK-MEL-5 melanoma
SK-OV-3 ovarian = system: SK-OV-3 ovarian
SN12C renal = system: SN12C renal
SNB-19 CNS = system: SNB-19 CNS
SNB-75 CNS = system: SNB-75 CNS
SR leukemia = system: SR leukemia
SW-620 colon = system: SW-620 colon
T-47D breast = system: T-47D breast
TK-10 renal = system: TK-10 renal
U251 CNS = system: U251 CNS
UACC-257 melanoma = system: UACC-257 melanoma
UACC-62 melanoma = system: UACC-62 melanoma
UO-31 renal = system: UO-31 renal
OVCAR-4 ovarian = system: OVCAR-4 ovarian
RPMI-8226 leukemia = system: RPMI-8226 leukemia

c1ccc([P+](CCN2Cc3ccccc3C2)(c2ccccc2)c2ccccc2)cc1
TGI (786-0 renal): 44.4 µM | TGI (A498 renal): 55.6 µM | TGI (A549 NSCLC): > 100 µM | TGI (ACHN renal): 23.1 µM | TGI (CAKI-1 renal): > 100 µM | TGI (CCRF-CEM leukemia): 40.5 µM | TGI (COLO 205 colon): 3.45 µM | TGI (DU-145 prostate): 45.6 µM | TGI (EKVX NSCLC): > 100 µM | TGI (HCC-2998 colon): 15.9 µM | TGI (HCT-116 colon): 20.9 µM | TGI (HCT-15 colon): 36.2 µM | TGI (HL-60(TB) leukemia): 10.5 µM | TGI (HOP-62 NSCLC): 45.3 µM | TGI (HOP-92 NSCLC): 6.41 µM | TGI (HS 578T breast): > 100 µM | TGI (HT29 colon): 22.2 µM | TGI (IGROV1 ovarian): 5.87 µM | TGI (K-562 leukemia): > 100 µM | TGI (KM12 colon): 16 µM | TGI (LOX IMVI melanoma): 33 µM | TGI (M14 melanoma): 23 µM | TGI (MALME-3M melanoma): 25.1 µM | TGI (MCF7 breast): 14.4 µM | TGI (MDA-MB-231 breast): 16.2 µM | TGI (MDA-MB-435): 13.7 µM | TGI (MDA-N): 14.3 µM | TGI (MOLT-4 leukemia): > 100 µM | TGI (NCI-H226 lung): 31.7 µM | TGI (NCI-H23 lung): > 100 µM | TGI (NCI-H460 lung): > 100 µM | TGI (NCI-H522 lung): 12.2 µM | TGI (NCI/ADR-RES ovarian): > 100 µM | TGI (OVCAR-3 ovarian): 18.1 µM | TGI (OVCAR-5 ovarian): 57 µM | TGI (OVCAR-8 ovarian): 7.95 µM | TGI (PC-3 prostate): > 100 µM | TGI (RXF 393 renal): 22.3 µM | TGI (SF-268 CNS): 30.1 µM | TGI (SF-295 CNS): 83.9 µM | TGI (SF-539 CNS): 24.4 µM | TGI (SK-MEL-2 melanoma): 5.41 µM | TGI (SK-MEL-28 melanoma): 9.6 µM | TGI (SK-MEL-5 melanoma): 11.3 µM | TGI (SK-OV-3 ovarian): 66.2 µM | TGI (SN12C renal): 32.8 µM | TGI (SNB-19 CNS): > 100 µM | TGI (SNB-75 CNS): 8.71 µM | TGI (SR leukemia): 52 µM | TGI (SW-620 colon): 25.8 µM | TGI (T-47D breast): 24.3 µM | TGI (TK-10 renal): 41.5 µM | TGI (U251 CNS): 19.5 µM | TGI (UACC-257 melanoma): 12.4 µM | TGI (UACC-62 melanoma): 13.1 µM | TGI (UO-31 renal): 34.6 µM

N#Cc1c(N)nc(Nc2cccc3ccccc23)c(C#N)c1C#N
TGI (A498 renal): > 10 µM | TGI (A549 NSCLC): > 10 µM | TGI (ACHN renal): > 10 µM | TGI (CAKI-1 renal): > 10 µM | TGI (CCRF-CEM leukemia): 6.05 µM | TGI (COLO 205 colon): > 10 µM | TGI (DU-145 prostate): > 10 µM | TGI (EKVX NSCLC): > 10 µM | TGI (HCC-2998 colon): > 10 µM | TGI (HCT-116 colon): > 10 µM | TGI (HCT-15 colon): > 10 µM | TGI (HL-60(TB) leukemia): 4.77 µM | TGI (HOP-62 NSCLC): > 10 µM | TGI (HS 578T breast): 8.7 µM | TGI (HT29 colon): > 10 µM | TGI (IGROV1 ovarian): > 10 µM | TGI (K-562 leukemia): 9.64 µM | TGI (KM12 colon): > 10 µM | TGI (LOX IMVI melanoma): 4.36 µM | TGI (M14 melanoma): > 10 µM | TGI (MALME-3M melanoma): > 10 µM | TGI (MCF7 breast): > 10 µM | TGI (MDA-MB-231 breast): > 10 µM | TGI (MDA-MB-435): > 10 µM | TGI (MDA-N): 4 µM | TGI (MOLT-4 leukemia): 9.2 µM | TGI (NCI-H226 lung): > 10 µM | TGI (NCI-H23 lung): > 10 µM | TGI (NCI-H460 lung): > 10 µM | TGI (NCI-H522 lung): > 10 µM | TGI (NCI/ADR-RES ovarian): > 10 µM | TGI (OVCAR-3 ovarian): 7.57 µM | TGI (OVCAR-4 ovarian): > 10 µM | TGI (OVCAR-5 ovarian): > 10 µM | TGI (OVCAR-8 ovarian): > 10 µM | TGI (PC-3 prostate): > 10 µM | TGI (RPMI-8226 leukemia): 6.19 µM | TGI (RXF 393 renal): > 10 µM | TGI (SF-268 CNS): > 10 µM | TGI (SF-295 CNS): > 10 µM | TGI (SF-539 CNS): > 10 µM | TGI (SK-MEL-2 melanoma): > 10 µM | TGI (SK-MEL-28 melanoma): > 10 µM | TGI (SK-MEL-5 melanoma): > 10 µM | TGI (SK-OV-3 ovarian): > 10 µM | TGI (SN12C renal): > 10 µM | TGI (SNB-19 CNS): > 10 µM | TGI (SNB-75 CNS): > 10 µM | TGI (SR leukemia): 9.29 µM | TGI (SW-620 colon): > 10 µM | TGI (T-47D breast): > 10 µM | TGI (TK-10 renal): > 10 µM | TGI (U251 CNS): > 10 µM | TGI (UACC-62 melanoma): > 10 µM | TGI (UO-31 renal): > 10 µM
